Experiment in all cases: DTP human tumour cell line panel, 48 h
Experiment [1] has as its system HS 578T breast.
Experiment [2] concerns NCI/ADR-RES ovarian.
Experiment [3] deals with HOP-18 NSCLC.
The subject of experiment [4] is LXFL 529 NSCLC.
Experiment [5] concerns MDA-N.
The subject of experiment [6] is DMS 273 small cell lung.
Experiment [7] has as its system DMS 114 small cell lung.

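Briefly, cells in 96-well plates were exposed to five compound concentrations for 48 h, and endpoints were estimated by linear interpolation. At the GI50, growth is halved. The concentration for full growth arrest is given as TGI.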

Broadly, the GI50 is the concentration that inhibits growth by half. One may read the TGI as the concentration at which net growth stops. With `CN[C@]12CC3(C=CC(=O)C=C3)O[C@@]1(Cc1ccc(OC)cc1)N(C)C(=O)N2`, in experiment [1], the GI50 is 4.62 µM and the TGI was more than 100 µM. Besides, in experiment [2], the GI50 is 3.46 µM and the TGI is more than 100 µM.

Regarding `COc1ccc(/C(C)=C(\c2ccc(Cl)cc2)c2ccc(OCCN3CCCC3)cc2)cc1F`, in experiment [1], the GI50 was 3.77 µM and the concentration for total growth inhibition (TGI) stood at 9.55 µM. Besides, in experiment [2], the GI50 was 3.9 µM and the total growth inhibition concentration (TGI) was found to be 7.8 µM.

For `Cc1cccc2c(N=Nc3ccc(S(N)(=O)=O)cc3)c(O)[nH]c12`, in experiment [1], the GI50 is more than 25 µM and the TGI is more than 25 µM. Also, in experiment [2], the GI50 is more than 25 µM and the TGI was more than 25 µM.

For `CC(=O)Nc1ccc(C(=O)NN2C(=O)C(Cl)C2c2cc(Br)ccc2O)cc1` (stereo not given), the TGI in experiment [3] was 62 µM; in experiment [1], more than 100 µM; in experiment [4], more than 100 µM; in experiment [5], more than 100 µM; in experiment [2], more than 100 µM.

Take `O=c1cc(-c2ccc(Cl)cc2)[nH]c2ncccc12`: the concentration for total growth inhibition (TGI) in experiment [1] was more than 100 µM; in experiment [5] it was 26.1 µM; in experiment [2], more than 100 µM. Further, in experiment [5], the GI50 is 8.26 µM.

On to `O=C(Nc1n[nH]c2nc(-c3ccco3)ccc12)C1CC1`, for which, in experiment [1], the GI50 was more than 25 µM and the TGI was more than 25 µM. Moreover, in experiment [2], the GI50 is more than 25 µM and the TGI was more than 25 µM.

For `C=C1C(=O)O[C@@H]2C(=O)[C@@H](C)[C@@H]3C=CC(=O)[C@@]3(C)[C@@H](OC(=O)/C(C)=C\C)[C@H]12`, the concentration for total growth inhibition (TGI) in experiment [1] is more than 58.8 µM; in experiment [5], 2.99 µM; in experiment [2], 7.28 µM.

`O=C1/C(=C\C(Cl)=C/c2ccc([N+](=O)[O-])cc2)SC(=S)N1CCc1ccc(O)cc1`: in experiment [1], the GI50 was 0.354 µM and the TGI came out at 2.04 µM. Also, in experiment [2], the GI50 is 0.342 µM and the TGI stood at 1.78 µM.

As to `CCCCCCCC/C=C/CCCCCCCC1=NC(C)(C)CN1C(C)C`, in experiment [1], the GI50 is 1.55 µM and the TGI is 3.56 µM. In experiment [2], the GI50 was 1.54 µM and the TGI came to 3.16 µM.

In the case of `NC(CNO)C(=O)O` (stereo not given), the total growth inhibition concentration (TGI) in experiment [1], in experiment [5] and in experiment [2] was more than 100 µM each time.

For `N.N.N.N.N.N.[I-].[Os]`, the GI50 in experiment [6], in experiment [3] and in experiment [4] was more than 100 µM throughout. Further, the TGI in experiment [6], in experiment [3] and in experiment [4] was more than 100 µM in each case.

On to `c1cc(OCCN2CCCCCC2)ccc1CNc1ccc2nc(CCC3CCCCC3)[nH]c2c1`, for which, in experiment [1], the GI50 was 1.7 µM and the TGI is 4.94 µM. In addition, in experiment [2], the GI50 was 2.64 µM and the TGI worked out at 8.66 µM.

As for `CCOC(=O)c1c(C)nc2ccc(Cl)cc2c1-c1ccccc1`, in experiment [1], the GI50 is 19.6 µM and the TGI came out at 52.1 µM. In experiment [2], the GI50 was 22.2 µM and the TGI came to 80.2 µM.

Regarding `Clc1cc(Cl)c(Cl)c(-c2nc(-c3cccnc3)cs2)c1`, in experiment [1], the GI50 was 18.6 µM and the TGI amounted to 55.5 µM. Moreover, in experiment [2], the GI50 was 8.78 µM and the TGI is more than 100 µM.

As to `O=C(O)CC(Nc1ccccc1)C(=O)O` (stereo not given), the TGI in experiment [1], in experiment [5] and in experiment [2] was more than 100 µM in each case.

As for `COc1ccc(/C=C2\CN(Cc3cn(CCCNc4ccnc5cc(Cl)ccc45)nn3)C/C(=C\c3ccc(OC)c(OC)c3)C2=O)cc1OC`, the GI50 in experiment [1] was 1.99 µM; in experiment [2] it was more than 100 µM. Also, the TGI in experiment [1] was 9.97 µM; in experiment [2], more than 100 µM.

Regarding `O=C(O)c1ccc2c(c1Nc1ccccc1)C(=O)c1ccccc1C2=O`, in experiment [2], the GI50 was 52.3 µM and the total growth inhibition concentration (TGI) was more than 100 µM.

With `ClCc1ccc(-c2ccc(Cn3cnc4c(Cl)nc(Cl)nc43)cc2)cc1`, in experiment [1], the GI50 was 3.14 µM and the TGI was 11.1 µM. Besides, in experiment [2], the GI50 is 2.5 µM and the TGI worked out at 7.55 µM.

Consider `COc1ccc(-c2nn(-c3cccc(NC(=O)Nc4ccc(Cl)c(C(F)(F)F)c4)c3)cc2-c2ccncc2)cc1Cl`, for which, in experiment [1], the GI50 was 2.27 µM and the TGI came out at 9.3 µM. Further, in experiment [2], the GI50 was 2.62 µM and the TGI came out at 9.84 µM.

Consider `Cc1c2c(nn1C(=O)c1nn(-c3ccc(Cl)cc3)cc1O)-c1ccccc1CC2`, for which, in experiment [1], the GI50 was 0.0201 µM and the total growth inhibition concentration (TGI) was more than 100 µM. Moreover, in experiment [2], the GI50 was 0.0495 µM and the TGI was more than 100 µM.

As to `COC(=O)CCC(NC(=O)C(C)NC(=O)COC1C(O)C(OC(=O)CCNc2c3ccccc3nc3cccc([N+](=O)[O-])c23)OC(OCc2ccccc2)C1NC(C)=O)C(N)=O` (stereo not given), the TGI was more than 10 µM in experiment [1] and 6.04 µM in experiment [5].

For `COc1cc(/C=C/C(=O)c2ccc(Nc3ncnc4ccccc34)cc2)cc(OC)c1`, the figures for the GI50 in experiment [1] and in experiment [2] were 8.21 µM and 6.52 µM, respectively. The results for the TGI in experiment [1] and in experiment [2] were 69.8 µM and more than 100 µM, respectively.

With `COc1cc(/C=C2\CN(C)C/C(=C\c3cc(OC)c(OC)c(OC)c3)C2=O)cc(OC)c1OC`, in experiment [1], the GI50 was 1.01 µM and the TGI is more than 63.5 µM. Further, in experiment [2], the GI50 is 0.349 µM and the TGI was more than 100 µM.

`C=C1C(=O)O[C@H]2[C@H]1CC/C(COC(=O)CCCCCCCCC(=O)OC/C1=C/CC[C@@]3(C)O[C@H]3[C@H]3OC(=O)C(=C)[C@@H]3CC1)=C\CC[C@@]1(C)O[C@@H]21`: in experiment [1], the GI50 is 2.91 µM and the TGI was found to be 9.88 µM. For the same compound, in experiment [2], the GI50 is 3.14 µM and the TGI came to 13.5 µM.

For the compound `S=c1nc2[nH]ncc2c(N/N=C/c2ccccc2)[nH]1`, in experiment [1], the GI50 was more than 100 µM and the TGI was more than 100 µM. Moreover, in experiment [2], the GI50 is more than 100 µM and the TGI is more than 100 µM.

Take `COc1ccc(CNC2=C(NC(C)=O)C(=O)c3ccccc3C2=O)cc1`: the TGI is more than 50 µM in experiment [6] and 14.9 µM in experiment [4].

As to `ClC1CCC2OOC1O2` (stereo not given), the TGI in experiment [7] and in experiment [6] was more than 100 µM each time.

For the origin of these results see PubChem BioAssay (NCI).
